Measured values reported in article PMC11149917, “Translational and Therapeutic Evaluation of RAS-GTP Inhibition by RMC-6236 in RAS-Driven Cancers” (Cancer Discovery, 2024).
Where “and” joins values, the source holds several entries; their conditions need not be identical. Equal entries are not always repeated.

Experiments:
Dusp6 mRNA in colon = assay: In vivo PD by Dusp6 qPCR and PK/PD relationship; parameters: species or system mouse; conditions: sheet colon
Procedure: (§1) Tumor-bearing animals were randomized and assigned into groups (n = 1–10/group). The vehicle at 10 mL/kg or RMC-6236 at indicated doses was administered via oral gavage daily, and animals were treated for 28 days, or up to 90 days if PFS was being assessed. […] For single-dose PKPD study, mice were randomized and assigned into groups (n = 3/dose/time point). A single dose of RMC-6236 was administered orally at either 3, 10, or 25 mg/kg. Blood and tissues, including the tumor, brain, colon, ear skin, and muscle, were harvested at indicated time points. Whole blood was collected in K2EDTA Microtainer tubes, incubated for 5 minutes, and snap-frozen in liquid nitrogen. The tissue was either fixed in 10% formalin or snap-frozen in liquid nitrogen for further analysis.
(§2) RNA was extracted from at least 20 mg of tissue using an RNeasy Mini Kit (Qiagen, 74104) and a High-Throughput Tissue grinder following the manufacturer's protocol. Reverse transcription was carried out using High-Capacity cDNA Reverse Transcription Kit (ABI, 4368814) according to the manufacturer's protocol. The cDNA product was used for qPCR analysis using TaqMan Gene-Expression Master Mix (ABI, 4369016). TaqMan primer probes specific to DUSP6 (human—Hs00737962_m1, murine—Mm00518185_m1, FAM-MGB) and 18S (RNA18S1; human—Hs99999901_s1, murine—Mm03928990_g1, FAM-MGB, used as an internal control gene) were used to detect the levels from each sample in duplicates using a 10 µL final reaction volume in a 384-well clear optical reaction plate. For qPCR, Ct values of DUSP6 and 18S were obtained for analysis. DUSP6 Ct value was normalized to 18S, and then the mean relative mRNA expression levels of each group were normalized to the vehicle control group. Values were plotted as relative change in mRNA expression compared with vehicle. Means ± SEM were shown.
(§3) Concentrations of RMC-6236 in tumor or normal tissues and percentage of DUSP6 inhibition as compared with the vehicle control from individual animals were collected and analyzed post a single dose of RMC-6236 ranging from 0.3 to 100 mg/kg (Supplementary Table S6). A 3-parameter sigmoidal exposure–response model was fitted to the data in GraphPad Prism to derive EC50 and EC90 values.

Dusp6 mRNA in ear skin = assay: In vivo PD by Dusp6 qPCR and PK/PD relationship; parameters: species or system mouse; conditions: for % inhibition of DUSP6 vs control: sheet Ear Skin
Procedure: as §1, §2, §3

wild-type HRAS = wild-type HRAS (Homo sapiens, UniProt P01112+P62937); assay: RAS-RAF TR-FRET; type: biochemical; conditions: 25 µmol/L CypA, read-out: EC50, disruption of RAF-RBD binding
Sequence of wild-type HRAS (P01112 1-169): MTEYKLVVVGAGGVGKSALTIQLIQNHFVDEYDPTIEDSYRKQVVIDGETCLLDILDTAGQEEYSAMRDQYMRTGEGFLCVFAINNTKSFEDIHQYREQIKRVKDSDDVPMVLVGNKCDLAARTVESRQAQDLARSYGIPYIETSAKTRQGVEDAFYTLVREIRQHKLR
Sequence of wild-type HRAS (P62937 whole entry): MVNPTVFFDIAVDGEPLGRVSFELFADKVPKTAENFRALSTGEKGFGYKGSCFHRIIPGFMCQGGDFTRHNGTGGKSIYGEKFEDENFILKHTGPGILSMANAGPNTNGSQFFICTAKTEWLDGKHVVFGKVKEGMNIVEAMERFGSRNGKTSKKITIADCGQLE

SMILES: CCn1c(-c2cc(N3CCN(C)CC3)cnc2[C@H](C)OC)c2c3cc(ccc31)-c1csc(n1)C[C@H](NC(=O)[C@H]1C[C@@H]1C)C(=O)N1CCC[C@H](N1)C(=O)OCC(C)(C)C2 [RMC-6236]
- % inhibition of DUSP6 vs control (Dusp6 mRNA in colon; Capan-2, Capan-2 #3_PHA 2023, 25 mg/kg, 8h): 50.4575% and 35.7513% and 63.8583%
- % inhibition of DUSP6 vs control (Dusp6 mRNA in colon; Capan-2, Capan-2 #3_PHA 2023, 25 mg/kg, 24h): 0%
- % inhibition of DUSP6 vs control (Dusp6 mRNA in colon; Capan-2, Capan-2 #3_PHA 2023, 25 mg/kg, 48h): 0%
- % inhibition of DUSP6 vs control (Dusp6 mRNA in colon; Capan-2, Capan-2 #3_PHA 2023, 50 mg/kg, 4h): 52.3107% and 83.9934% and 66.044%
- % inhibition of DUSP6 vs control (Dusp6 mRNA in colon; Capan-2, Capan-2 #3_PHA 2023, 50 mg/kg, 24h): 0%
- % inhibition of DUSP6 vs control (Dusp6 mRNA in colon; Capan-2, Capan-2 #3_PHA 2023, 50 mg/kg, 48h): 0%
- % inhibition of DUSP6 vs control (Dusp6 mRNA in colon; Capan-2, Capan-2 #3_PHA 2023, 100 mg/kg, 2h): 67.4272% and 86.2096% and 68.6456%
- % inhibition of DUSP6 vs control (Dusp6 mRNA in colon; Capan-2, Capan-2 #3_PHA 2023, 100 mg/kg, 4h): 65.0894% and 44.0683% and 74.5323%
- % inhibition of DUSP6 vs control (Dusp6 mRNA in colon; Capan-2, Capan-2 #3_PHA 2023, 100 mg/kg, 8h): 70.4396% and 92.2693% and 83.0807%
- % inhibition of DUSP6 vs control (Dusp6 mRNA in colon; Capan-2, Capan-2 #3_PHA 2023, 100 mg/kg, 24h): 0%
- % inhibition of DUSP6 vs control (Dusp6 mRNA in colon; Capan-2, Capan-2 #3_PHA 2023, 100 mg/kg, 48h): 0%
- % inhibition of DUSP6 vs control (Dusp6 mRNA in colon; KP-4, KP-4 #5, 25 mg/kg, 4h): 76.482% and 79.4553% and 90.4818%
- % inhibition of DUSP6 vs control (Dusp6 mRNA in colon; KP-4, KP-4 #5, 25 mg/kg, 8h): 84.9604% and 85.3209% and 74.5306%
- % inhibition of DUSP6 vs control (Dusp6 mRNA in colon; KP-4, KP-4 #5, 25 mg/kg, 24h): 0%
- % inhibition of DUSP6 vs control (Dusp6 mRNA in colon; KP-4, KP-4 #5, 25 mg/kg, 48h): 0%
- EC50 (Dusp6 mRNA in ear skin; Mus musculus, read-out: EC50, inhibition of Dusp6 expression vs RMC-6236 concentration (PK/PD relationship)): 1.16 µM
- EC90 (Dusp6 mRNA in ear skin; Mus musculus, read-out: EC90, inhibition of Dusp6 expression vs RMC-6236 concentration (PK/PD relationship)): 10.3 µM
- % inhibition of DUSP6 vs control (Dusp6 mRNA in ear skin; model Capan-2, study Capan-2 #3_PHA 2023, 10 mg/kg, 2h): 42.9575% and 52.5293% and 38.4381%
- % inhibition of DUSP6 vs control (Dusp6 mRNA in ear skin; model Capan-2, study Capan-2 #3_PHA 2023, 10 mg/kg, 4h): 58.9598% and 71.2804% and 61.0388%
- % inhibition of DUSP6 vs control (Dusp6 mRNA in ear skin; model Capan-2, study Capan-2 #3_PHA 2023, 10 mg/kg, 24h): 3.733% and 0%
- % inhibition of DUSP6 vs control (Dusp6 mRNA in ear skin; model Capan-2, study Capan-2 #3_PHA 2023, 10 mg/kg, 48h): 6.69% and 0%
- % inhibition of DUSP6 vs control (Dusp6 mRNA in ear skin; model Capan-2, study Capan-2 #3_PHA 2023, 25 mg/kg, 2h): 80.2475% and 68.4632% and 48.9455%
- % inhibition of DUSP6 vs control (Dusp6 mRNA in ear skin; model Capan-2, study Capan-2 #3_PHA 2023, 25 mg/kg, 4h): 91.4616% and 90.6888% and 92.061%
- % inhibition of DUSP6 vs control (Dusp6 mRNA in ear skin; model Capan-2, study Capan-2 #3_PHA 2023, 25 mg/kg, 8h): 84.5561% and 76.0166% and 82.9823%
- % inhibition of DUSP6 vs control (Dusp6 mRNA in ear skin; model Capan-2, study Capan-2 #3_PHA 2023, 25 mg/kg, 24h): 0%
- % inhibition of DUSP6 vs control (Dusp6 mRNA in ear skin; model Capan-2, study Capan-2 #3_PHA 2023, 25 mg/kg, 48h): 0%
- % inhibition of DUSP6 vs control (Dusp6 mRNA in ear skin; model Capan-2, study Capan-2 #3_PHA 2023, 50 mg/kg, 2h): 78.2346% and 81.5063% and 55.09%
- % inhibition of DUSP6 vs control (Dusp6 mRNA in ear skin; model Capan-2, study Capan-2 #3_PHA 2023, 50 mg/kg, 4h): 93.2074% and 87.1476% and 69.7478%
- % inhibition of DUSP6 vs control (Dusp6 mRNA in ear skin; model Capan-2, study Capan-2 #3_PHA 2023, 50 mg/kg, 8h): 88.8886% and 90.1237% and 86.7863%
- % inhibition of DUSP6 vs control (Dusp6 mRNA in ear skin; model Capan-2, study Capan-2 #3_PHA 2023, 100 mg/kg, 2h): 57.6595% and 75.6818% and 80.5868%
- % inhibition of DUSP6 vs control (Dusp6 mRNA in ear skin; model Capan-2, study Capan-2 #3_PHA 2023, 100 mg/kg, 4h): 89.3781% and 78.2346% and 89.488%
- % inhibition of DUSP6 vs control (Dusp6 mRNA in ear skin; model Capan-2, study Capan-2 #3_PHA 2023, 100 mg/kg, 8h): 93.8569% and 95.7308% and 92.061%
- % inhibition of DUSP6 vs control (Dusp6 mRNA in ear skin; model Capan-2, study Capan-2 #3_PHA 2023, 100 mg/kg, 24h): 30.7393% and 61.1736%
- % inhibition of DUSP6 vs control (Dusp6 mRNA in ear skin; model KP-4, study KP-4 #5, 25 mg/kg, 4h): 90.5424% and 91.5353% and 93.5179%
- % inhibition of DUSP6 vs control (Dusp6 mRNA in ear skin; model KP-4, study KP-4 #5, 25 mg/kg, 8h): 80.3499% and 66.4912% and 89.8987%
- shift in EC50 and EC90 vs tumor cells of Capan-2, NCI-H441, and HPAC models (Dusp6 mRNA in ear skin; skin from tumor-bearing animals): ≥ 10 fold
- EC50 (wild-type HRAS): 0.082 µM
